Measurements: patent US20240415918A1, “Polypeptide and its use as a CCK receptor agonist/antagonist” (Centre for Regenerative Medicine & Health, Hong Kong …, priority 2021, published 2024)
Where a SMILES comes first, the peptide text is derived from it. Where no end group is shown, it is not given here. [ ]: non-standard residue; d: D form. The star is where a group is joined. Trp(1-Me) = Cn1cc(C[C@H](N)C(=O)O)c2ccccc21; NMeW = CN[C@@H](Cc1c[nH]c2ccccc12)C(=O)O; Phe(3-Br) = N[C@@H](Cc1cccc(Br)c1)C(=O)O; dNMeW = CN[C@H](Cc1c[nH]c2ccccc12)C(=O)O; Aad = N[C@@H](CCCC(=O)O)C(=O)O; Aoc(2) = CCCCCC[C@H](N)C(=O)O; Nle = CCCC[C@H](N)C(=O)O; Cbz = O=C(OCc1ccccc1)*

Target: T1, CCK-B receptors (CHO-CCK) (Homo sapiens, UniProt P32239)
T1 construct: expressed in transfected cells; host or cells: CHO (CHO-CCK model cells)
T1 sequence (P32239 1-447): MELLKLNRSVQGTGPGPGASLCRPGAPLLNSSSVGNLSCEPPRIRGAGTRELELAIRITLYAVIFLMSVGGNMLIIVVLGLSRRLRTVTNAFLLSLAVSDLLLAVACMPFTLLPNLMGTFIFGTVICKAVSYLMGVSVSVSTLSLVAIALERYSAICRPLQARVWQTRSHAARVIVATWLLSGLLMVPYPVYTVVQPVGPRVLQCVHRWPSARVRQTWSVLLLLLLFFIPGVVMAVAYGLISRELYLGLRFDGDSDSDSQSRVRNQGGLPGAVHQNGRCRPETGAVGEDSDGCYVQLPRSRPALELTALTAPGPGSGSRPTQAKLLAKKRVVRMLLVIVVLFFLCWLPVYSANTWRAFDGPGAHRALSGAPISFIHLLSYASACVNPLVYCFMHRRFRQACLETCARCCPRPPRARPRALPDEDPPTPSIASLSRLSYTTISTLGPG
Assay: Calcium flux (Fluo-8) agonist test on CHO-CCK model cells
Type: cell-based
Settings: for % Act-Ave @ 1 nM: compound at 1 nM; for % Act-Ave @ 1 nM / % Act-Ave @ 50 nM / EC50: CHO-CCK cells; for % Act-Ave @ 50 nM: compound at 50 nM; for Agonistic Activity (%) at 10 μM: compound at 10 μM, percentage of signal of 20 nM CCK8 alone
Procedure: • To detect changes in intracellular calcium ion concentration after the compound acts on model cells containing CCK-B receptors (CHO-CCK).
• 1. The compound was formulated to a 10 mM mother liquor with DMSO, and then diluted into a series of 9 concentrations with a 3-fold gradient to form a 1000× stock solution.
2.1 Agonist • The compound stock solution was subjected to 200-fold dilution with HHBS buffer to form a 5× working solution.
• 1. Plate CHO-CCK cells in a 96-well plate with media containing 1% FBS, 30,000 cells/well/100 μL, and incubate overnight at 37° C. • 2. Prepare 1×Fluo-8 analysis buffer: mix 9 mL of HHBS, 1 mL of 10× Pluronic F127 Plus and 20 μL of Fluo-8 thoroughly for later use. • 3. Add Fluo-8 dye working solution to the cell plate, 100 μL/well. First incubate in a 37° C. incubator for 30 min, and then take it out and incubate at room temperature in the dark for 30 min. • 4. In the process of incubating cells, the compounds to be detected were prepared with HHBS. • 5.
The agonism/antagonism EC50 of the compound can be obtained by plotting the fitting curve with the agonism/antagonism percentage as Y-axis and the concentration of the compound as X-axis.

Row | Compound | Agonistic Activity (%) at 10 μM [%] | also measured
1 | CCCC[C@H](NC(=O)[C@H](Cc1c[nH]c2ccccc12)N(C)C(C)=O)C(=O)N[C@@H](CC(=O)O)C(=O)N[C@@H](Cc1cccc(Br)c1)C(N)=O [HT-273, Ac-(N-Me-Trp)-Nle-Asp-Phe(3-Br)-NH2] (Ac-[NMeW][Nle]D[Phe(3-Br)]-NH2) |  | % Act-Ave @ 1 nM: 52.14%; % Act-Ave @ 50 nM: 96.54%
2 | CSCC[C@H](NC(=O)[C@H](CC(=O)O)NC(=O)[C@@H](N)Cc1ccccc1)C(=O)N[C@@H](Cc1c[nH]c2ccccc12)C(=O)O [HT-1, Phe-Asp-Met-Trp-COOH] (H-FDMW-OH) |  | EC50 (compound alone, bound in μM): > 10 µM
3 | COC(=O)C[C@H](NC(=O)[C@H](CCS(C)(=O)=O)NC(=O)[C@H](N)Cc1c[nH]c2ccccc12)C(=O)N[C@@H](Cc1cccc(F)c1)C(N)=O [HT-129, D-Trp-Met(O2)-Asp(Ome)-Phe(3-F)-NH2] | −4.28 | 
4 | COC(=O)C[C@H](NC(=O)[C@H](CCSC)NC(=O)[C@H](N)Cc1c[nH]c2ccccc12)C(=O)N[C@@H](Cc1ccc(Cl)cc1)C(N)=O [HT-86, D-Trp-Met-Asp(Ome)-Phe(4-Cl)-NH2] | −0.94 | 
5 | CSCC[C@H](NC(=O)[C@H](Cc1c[nH]c2ccccc12)NC(=O)[C@@H](C)N)C(=O)N[C@@H](CC(=O)O)C(=O)N[C@@H](Cc1cccc(Br)c1)C(=O)N[C@H](C)C(N)=O [HT-292, D-Ala-Trp-Met-Asp-Phe(3-Br)-D-Ala-NH2] (H-[dA]WMD[Phe(3-Br)][dA]-NH2) |  | EC50 (Fluo-8 calcium flux, 100% control = 20 nM CCK8): 1.45 µM
6 | COC(=O)C[C@H](NC(=O)[C@H](CCSC)NC(=O)[C@H](N)Cc1c[nH]c2ccccc12)C(=O)N[C@@H](Cc1ccc(I)cc1)C(N)=O [HT-88, D-Trp-Met-Asp(Ome)-Phe(4-I)-NH2] | −4.64 | 
7 | COC(=O)C[C@H](NC(=O)[C@H](CCS(C)(=O)=O)NC(=O)[C@H](N)Cc1c[nH]c2ccccc12)C(=O)N[C@@H](Cc1ccccc1F)C(N)=O [HT-127, D-Trp-Met(O2)-Asp(Ome)-Phe(2-F)-NH2] | 1.79 | 
8 | C[S+]([O-])CC[C@H](NC(=O)[C@H](N)Cc1c[nH]c2ccccc12)C(=O)N[C@@H](CC(=O)O)C(=O)N[C@@H](Cc1ccc(Cl)cc1)C(N)=O (stereo partly drawn) [HT-52, D-Trp-Met(O)-Asp-Phe(4-Cl)-NH2] | 15.71 | 
9 | CCCCCC[C@H](NC(=O)[C@H](Cc1cn(C)c2ccccc12)NC(=O)OCc1ccccc1)C(=O)N[C@@H](CC(=O)O)C(=O)N[C@@H](Cc1cccc(Br)c1)C(N)=O [HT-279, Cbz-(1-Me-Trp)-Oa-Asp-Phe(3-Br)-NH2] (Cbz-[Trp(1-Me)][Aoc(2)]D[Phe(3-Br)]-NH2) |  | % Act-Ave @ 1 nM: −0.19%; % Act-Ave @ 50 nM: 90.99%
10 | COC(=O)C[C@H](NC(=O)[C@H](CCS(C)(=O)=O)NC(=O)[C@H](N)Cc1c[nH]c2ccccc12)C(=O)N[C@@H](Cc1cccc(C)c1)C(N)=O [HT-130, D-Trp-Met(O2)-Asp(Ome)-Phe(3-I)-NH2] | 0.86 | 
11 | COC(=O)C[C@H](NC(=O)[C@H](CC[S+](C)[O-])NC(=O)[C@H](N)Cc1c[nH]c2ccccc12)C(=O)N[C@@H](Cc1cc(F)cc(F)c1)C(N)=O (stereo partly drawn) [HT-124, D-Trp-Met(O)t-Asp(Ome)-Phe(3,5-DiF)-NH2] | 0.71 | 
12 | COC(=O)C[C@H](NC(=O)[C@H](CCSC)NC(=O)[C@H](N)Cc1c[nH]c2ccccc12)C(=O)N[C@@H](Cc1cc(F)c(F)c(F)c1)C(N)=O [HT-91, D-Trp-Met-Asp(Ome)-Phe(3,4,5-TriF)-NH2] | 3.12 | 
13 | C[S+]([O-])CC[C@H](NC(=O)[C@H](N)Cc1c[nH]c2ccccc12)C(=O)N[C@@H](CC(=O)OCCNc1cccc2c(O)cccc12)C(=O)N[C@@H](Cc1cccc(Cl)c1)C(N)=O (stereo partly drawn) [HT-145, D-Trp-Met(O)t-Asp(EDANS)-Phe(3-Cl)-NH2] | −5.52 | 
14 | COC(=O)C[C@H](NC(=O)[C@H](CC[S+](C)[O-])NC(=O)[C@H](N)Cc1c[nH]c2ccccc12)C(=O)N[C@@H](Cc1cccc(Br)c1)C(N)=O (stereo partly drawn) [HT-114, D-Trp-Met(O)-Asp(Ome)-Phe(3-Br)-NH2] | −8.48 | 
15 | [2H]c1ccc(C[C@H](NC(=O)[C@H](CC(=O)OC)NC(=O)[C@H](CCS(C)(=O)=O)NC(=O)[C@H](N)Cc2c[nH]c3ccccc23)C(N)=O)cc1 [HT-138, D-Trp-Met(O2)-Asp(Ome)-Phe(4-F)-NH2] | −3.84 | 
16 | CCCC[C@H](NC(C)=O)C(=O)N[C@@H](CC(=O)O)C(=O)N[C@@H](Cc1cccc(Br)c1)C(N)=O [HT-283, Ac-Nle-Asp-Phe(3-Br)-NH2] (Ac-[Nle]-Asp-[Phe(3-Br)]-NH2) |  | % Act-Ave @ 1 nM: −0.04%; % Act-Ave @ 50 nM: −0.03%
17 | COC(=O)C[C@H](NC(=O)[C@H](CCS(C)(=O)=O)NC(=O)[C@H](N)Cc1c[nH]c2ccccc12)C(=O)N[C@@H](Cc1ccc(Br)cc1)C(N)=O [HT-136, D-Trp-Met(O2)-Asp(Ome)-Phe(4-Br)-NH2] | 2.69 | 
18 | CCCC[C@H](NC(=O)[C@H](Cc1c[nH]c2ccccc12)N(C)C(C)=O)C(=O)N[C@@H](CCCC(=O)O)C(=O)N[C@@H](Cc1cccc(Br)c1)C(N)=O [HT-272, Ac-(N-Me-Trp)-Nle-Aa-Phe(3-Br)-NH2] (Ac-[NMeW][Nle][Aad][Phe(3-Br)]-NH2) |  | % Act-Ave @ 1 nM: −0.33%; % Act-Ave @ 50 nM: 86.09%
19 | HHHHHHSSGGWKDF-NH2 [HT-286] |  | % Act-Ave @ 1 nM: −0.40%; % Act-Ave @ 50 nM: −0.52%
20 | CSCC[C@H](NC(=O)[C@H](CC(=O)O)NC(=O)[C@H](Cc1ccccc1)NC(C)=O)C(=O)N[C@@H](Cc1c[nH]c2ccccc12)C(=O)O [HT-3, Ac-Phe-Asp-Met-Trp-NH2] |  | EC50 (compound alone, bound in μM): > 10 µM
21 | COC(=O)C[C@H](NC(=O)[C@H](CCSC)NC(=O)[C@H](N)Cc1c[nH]c2ccccc12)C(=O)N[C@@H](Cc1ccc(C)cc1)C(N)=O [HT-81, D-Trp-Met-Asp(Ome)-Phe(4-Me)-NH2] | 12.27 | 
22 | COC(=O)C[C@H](NC(=O)[C@H](CC[S+](C)[O-])NC(=O)[C@H](N)Cc1c[nH]c2ccccc12)C(=O)N[C@@H](Cc1ccccc1[N+](=O)[O-])C(N)=O (stereo partly drawn) [HT-109, D-Trp-Met(O)-Asp(Ome)-Phe(2-NO2)-NH2] | 3.33 | 
23 | C[S+]([O-])CC[C@H](NC(=O)[C@H](N)Cc1c[nH]c2ccccc12)C(=O)N[C@@H](CC(=O)O)C(=O)N[C@@H](Cc1ccccc1[N+](=O)[O-])C(N)=O (stereo partly drawn) [HT-41, D-Trp-Met(O)-Asp-Phe(2-NO2)-NH2] | −11.17 | 
24 | HHHHHHSSGGDYMGWKDF-NH2 [HT-287] |  | % Act-Ave @ 1 nM: 77.83%; % Act-Ave @ 50 nM: 99.10%
25 | COC(=O)C[C@H](NC(=O)[C@H](CCS(C)(=O)=O)NC(=O)[C@H](N)Cc1c[nH]c2ccccc12)C(=O)N[C@@H](Cc1ccc(C#N)cc1)C(N)=O [HT-134, D-Trp-Met(O2)-Asp(Ome)-Phe(4-CN)-NH2] | 11.25 | 
26 | COC(=O)C[C@H](NC(=O)[C@H](CC[S+](C)[O-])NC(=O)[C@H](N)Cc1c[nH]c2ccccc12)C(=O)N[C@@H](Cc1ccccc1F)C(N)=O (stereo partly drawn) [HT-110, D-Trp-Met(O)-Asp(Ome)-Phe(2-F)-NH2] | 1.36 | 
27 | CCCC[C@H](NC(=O)[C@@H](Cc1c[nH]c2ccccc12)N(C)C(C)=O)C(=O)N[C@@H](CCCC(=O)O)C(=O)N[C@@H](Cc1cccc(Br)c1)C(N)=O [HT-270, Ac-D-Trp-Nle-Aa-Phe(3-Br)-NH2] (Ac-[dNMeW][Nle][Aad][Phe(3-Br)]-NH2) |  | % Act-Ave @ 1 nM: −0.03%; % Act-Ave @ 50 nM: 80.85%
